Here are results for 1 compound from PMC11788587, “Validating Low‐Dose Iohexol as a Marker for Glomerular Filtration Rate by In Vitro and In Vivo Studies” (Clinical and Translational Science, 2025).

The target of one data set is T1, hOAT3 (Homo sapiens, UniProt Q8TCC7).
T1 construct: expressed in transfected cells; host or cells: HEK-293 (293) cells, pEBTetD plasmid, doxycycline-induced
T1 sequence (Q8TCC7 1-542): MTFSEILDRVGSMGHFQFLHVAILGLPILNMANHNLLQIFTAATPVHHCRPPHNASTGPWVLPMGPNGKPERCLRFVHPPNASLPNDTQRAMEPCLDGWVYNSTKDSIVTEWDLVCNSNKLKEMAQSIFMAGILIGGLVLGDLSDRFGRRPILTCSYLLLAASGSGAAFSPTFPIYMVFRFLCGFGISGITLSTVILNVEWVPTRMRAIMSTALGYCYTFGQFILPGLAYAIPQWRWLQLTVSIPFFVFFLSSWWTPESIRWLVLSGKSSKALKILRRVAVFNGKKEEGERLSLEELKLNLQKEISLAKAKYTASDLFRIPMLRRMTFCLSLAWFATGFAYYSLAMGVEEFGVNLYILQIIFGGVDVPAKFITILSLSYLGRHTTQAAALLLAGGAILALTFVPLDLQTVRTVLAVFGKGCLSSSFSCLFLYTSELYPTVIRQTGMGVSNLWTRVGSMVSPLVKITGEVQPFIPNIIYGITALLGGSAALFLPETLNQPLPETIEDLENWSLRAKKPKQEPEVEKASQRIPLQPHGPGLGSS
Nature of the data set: Substrate assessment: iohexol uptake in 293 cells expressing hOAT3 vs control. The format is in vitro ADME. To be noted: 10 μM iohexol, median (95% CI). The source says:
(§1) We characterized the inhibitory potential of iohexol on major drug transporters recommended by regulatory agencies, which were previously assessed in a clinical transporter phenotyping cocktail study. These transporters include hOAT1, hOAT3, hOCT1, hOCT2, hMATE1, hMATE2K, human organic anion transporter polypeptides (hOATP)1B1, hOATP1B3, and human multidrug resistance protein (hMDR)1. Additionally, we investigated whether iohexol is a substrate for any of the renal transporters among these, including hOAT1/3, hOCT1/2, and hMATE1/2K. Cell‐based uptake assays were used to assess the activities of hOAT1/3, hOCT1/2, hMATE1/2K, and hOATP1B1/1B3. Inside‐out membrane vesicle uptake assays were used to evaluate the activity of hMDR1.
For substrate assessments, iohexol was incubated with stably transfected HEK‐293 cells expressing one of the following transporters: hOAT1, hOAT3, hOCT1, hOCT2, hMATE1, or hMATE2K, as well as with control cells lacking transporter expression. Stably transfected cell lines containing pEBTetD plasmids with wild‐type human transporter cDNAs were generated as previously described. Transporter expression was induced by adding 1 μg/mL doxycycline to the growth medium for at least 20 h. Iohexol would be considered a substrate for these transporters if: (1) the ratio of iohexol uptake in cells expressing the transporter to that in control cells was ≥ 2, and (2) a known inhibitor of the transporter reduced iohexol uptake to ≤ 50% at concentrations ≥ 10 times its inhibition constant or half‐maximal inhibitory concentration.
Uptake assays were performed using stably transfected 293 cells, with or without the expression of one of the following transporters: hOAT1, hOAT3, hOCT1, hOCT2, hMATE1, or hMATE2K, as previously described.^1
For the substrate assessment, cells were incubated with 10 µM iohexol for 10 minutes and 30 minutes for each transporter. Inhibition assays were performed using specific standard substrates for each transporter: 10 µM para-aminohippuric acid (PAH) for hOAT1, 3 µM estrone-3-sulfate (E3S) for hOAT3, 50 µM metformin for hOCT1, 5 µM metformin for hOCT2, and 3 µM 1-methyl-4-phenylpyridinium (MPP+) for hMATE1 and hMATE2K. […]
R version 4.2.1 (R Foundation for Statistical Computing, Vienna, Austria) was used for statistical evaluations and data visualization. The data analysis approach for the in vitro study was detailed by Hsin CH et al..^1 In brief, for transport assays, the initial uptake rate was calculated by normalizing the substrate concentration to both the protein concentration and the incubation time for each dish or well. The transporter-mediated uptake rate (net uptake) was determined by performing an element-wise subtraction of uptake rates from different conditions. […]

In data set [1] the test system is hOAT1, hOAT3, hOCT1, hOCT2, hMATE1, or hMATE2K. The data set can be described thus: Substrate assessments, summary across transporters. The format is in vitro ADME, human.
Excerpt: as §1, with “Inside‐out membrane vesicle uptake assays were used to evaluate the activity of hMDR1.” left out
R version 4.2.1 (R Foundation for Statistical Computing, Vienna, Austria) was used for statistical evaluations and data visualization. The data analysis approach for the in vitro study was detailed by Hsin CH et al..^1 In brief, for transport assays, the initial uptake rate was calculated by normalizing the substrate concentration to both the protein concentration and the incubation time for each dish or well. The transporter-mediated uptake rate (net uptake) was determined by performing an element-wise subtraction of uptake rates from different conditions. […] Net uptake rates were determined by subtracting the uptake rate of the control cells or vesicles from that of the transporter-expressing cells or vesicles for each pair. […]

The next data set deals with P‐glycoprotein. The arrangement: method as in ref 16 Supawat et al. To be noted: human cancer cell lines; not statistically significant; ref 16 Supawat et al.; cited from earlier work.

As for `CC(=O)N(CC(O)CO)c1c(I)c(C(=O)NCC(O)CO)c(I)c(C(=O)NCC(O)CO)c1I` (stereo not shown) [iohexol], at hOAT3 (10 minutes), the “Differences in intracellular accumulation (expression on minus off)” value is on record as 0.6 (0.1 to 2) pmol/mg protein and the “Uptake ratio (transporter-expressing vs non-expressing cells)” value is listed as 1.1 (1 to 1.4). In addition, at hOAT3 (30 minutes), the “Differences in intracellular accumulation (expression on minus off)” value was 0.89 (0.19 to 1.5) pmol/mg protein and the “Uptake ratio (transporter-expressing vs non-expressing cells)” value is reported as 1.2 (1.1 to 1.3). The “Increase in iohexol accumulation vs control cells, range of median values across transporters” value in data set [1] (10 μM iohexol for 10 and 30 min) is −0.67 to 1.5 pmol/mg protein. Besides, the “Substrate of the transporters (conclusion)” value in data set [1] (in vitro) was “neither a substrate nor a significant inhibitor”. In the data set with P‐glycoprotein, the “Inhibitory effect on P-glycoprotein” value is listed as “mild inhibitory effect”.
